Measured values: patent EP4710775A1, “COMPOSITION FOR PROMOTING CHILD DEVELOPMENT” (Meiji Holdings Co., Ltd., priority 2023, dated 2024)

Key:
Assay type in all cases: in vivo, mouse (C57BL/6J)
[1] = White fat weight measurement (white adipose tissue around the reproductive organ) after weaning; conditions: two weeks after weaning; relative weight corrected by body weight; males and females combined, n = 10 per group; NMN orally days 3 to 21 after birth; vs control group, p < 0.01
Description: (§1) β-Nicotinamide mononucleotide (NMN) to be administered to mice was dissolved at a concentration of 100 mg/mL in distilled water and then used for administration.
(§2) Ten female C57BL/6J lines at day 13 of gestation were purchased. The mice were individually raised in a breeding room at a room temperature of 22 ± 2°C, humidity of 55 ± 15%, light period of 7:00 to 19:00, and dark period of 19:00 to 7:00 until the birth of the pups, and after the birth, group breeding was performed with the pups until weaning, and the born mouse pups were used for the test.
(§3) All the mouse pups were subjected to sex determination on day 3 after birth, and were divided into distilled water administration (later control group) and NMN administration (later NMN group) so that the number of males and females was approximately half in the littermates. […]
The body weights of all the mouse pups were measured on the day of weaning, and the pups were divided into a total of four groups: a control group (n = 7) and an NMN group (n = 5) for males, and a control group (n = 3) and an NMN group (n = 5) also for females. After weaning, the mice were normally bred for 2 weeks and dissected, the white adipose tissue around the reproductive organ was extracted, and the weight thereof was measured. […]

[2] = Measurement of grip strength (forelimb) after weaning in mice given NMN in infancy; conditions: three weeks after weaning; males and females combined, n = 20 per group; corrected by body weight; NMN orally gavaged days 3 to 21 after birth (500 mg/kg BW from day 14); vs control group, p < 0.05
Description: as §1
as §2, with “test. […]” for “test.”
(§4) The body weights of all the mouse pups were measured on the day of weaning, and the pups were divided into a total of four groups: a control group and an NMN group for males and a control group and an NMN group also for females (n = 10 for each group), so that the average values of the body weights were equal. […]
Three weeks after weaning, the grip strength (forelimb only) of all the individuals was measured using Grip Strength Meter for Rats & Mice (MK-380CM/F, manufactured by Muromachi Kikai Co., Ltd.). The measurement was performed 10 times per individual, and the maximum value was recorded. […]

[3] = Measurement of plasma triglyceride concentration after weaning (Triglyceride E-test Wako); conditions: two weeks after weaning, males only, NMN n = 5, control n = 7, NMN orally days 3 to 21 after birth, vs control group
Description: as §1, §2, §3
(§5) The body weights of the mouse pups were measured on the day of weaning, and the pups were divided into a total of two groups: a control group (n = 7) and an NMN group (n = 5) only for males. […]
Using the separated plasma, the triglyceride concentration was measured by a kit (Triglyceride E-test Wako: No. 432-40201).

[4] = Measurement of blood glucose level in plasma after weaning (Glucose II-test Wako); conditions: two weeks after weaning, males only, NMN n = 5, control n = 7, NMN orally days 3 to 21 after birth, vs control group, p < 0.01
Description: as §1, §2, §3, §5
Using the separated plasma, the blood glucose concentration (blood glucose level) was measured by a kit (Glucose II-test Wako: No. 439-90901).

[5] = Open field test: amount of voluntary activity and average moving speed after weaning; conditions: two weeks after weaning, 10 minutes, males and females combined, n = 20 per group, NMN orally days 3 to 21 after birth, vs control group, p < 0.05
Description: as §1
as §2, with “test. […]” for “test.”
as §4
Two weeks after weaning, an open field test was performed on all the individuals to measure the amount of voluntary activity and the average moving speed. […] From the obtained moving image, the amount of voluntary activity (total movement distance) and the average moving speed (average of moving speed excluding immobility state) were calculated using dedicated analysis software (SMART3.0: manufactured by Panlab).

## NC(=O)c1ccc[n+]([C@@H]2O[C@H](COP(=O)([O-])O)[C@@H](O)[C@H]2O)c1 [NMN, β-Nicotinamide mononucleotide]
[1]
  white fat weight: low as compared to that in the control group
[2]
  grip strength: high as compared to that in the control group
[3]
  blood triglyceride concentration: tended to be low as compared to that in the control group
[4]
  blood glucose levels: significantly low as compared to those in the control group
[5]; excluding immobility state
  average moving speed: high as compared to those in the control group
[5]; total movement distance
  amount of voluntary activity: high as compared to those in the control group
